Assay results taken from publication PMC6270304, “Synthesis, Structure and Cytotoxic Activity of New Acetylenic Derivatives of Betulin” (Molecules, 2013).
Values after ≈ are worked out from the molar mass of the structure shown.

Legend:
[1] = test system: T47D (human breast cancer); experiment: Antiproliferative assay in vitro (SRB); assay type: cell-based; conditions: for IC50: Homo sapiens, T47D, read-out: Cytotoxic activity IC50, Human T47D
Procedure: (§1) Cytotoxic activities of all newly synthesized compounds including betulin (1) were tested in SRB or MTT (in the case of leukemia cells) assay for their antiproliferative activity in vitro against three human cancer cell lines: SW707 (colorectal adenocarcinoma), CCRF/CEM (leukemia), T47D (breast cancer), and murine leukemia P388 as well as Balb3T3 normal fibroblasts cell lines. […] A value of less than 4 μg/mL was considered as an antiproliferative activity criterion for synthetic compounds [31].
(§2) The following established in vitro cell lines were applied: SW707 (human colorectal adenocarcinoma), CCRF/CEM (human leukemia), T47D (human breast cancer), P388 (mouse leukemia) and Balb3T3 (normal mouse fibroblasts). All lines were obtained from the American Type Culture Collection (Rockville, MD, USA) and maintained at the Cell Culture Collection of the Institute of Immunology and Experimental Therapy (Wroclaw, Poland).
(§3) Twenty-four hours before addition of the tested agents, the cells were plated in 96-well plates (Sarstedt, Numbrecht, Germany) at a density of 10^4 cells per well in 100 μL of culture medium. The cells were cultured in the opti-MEM medium supplemented with 2 mM glutamine (Gibco, Grand Island, NY, USA), streptomycin (50 μg/mL), penicillin (50 U/mL) (both antibiotics from Polfa, Tarchomin, Poland) and 5% fetal calf serum (Gibco). The cell cultures were maintained at 37 °C in humid atmosphere saturated with 5% CO2.
(§4) The compounds were dissolved in DMSO and culture medium (1:9) to the concentration of 1 mg/mL, and subsequently diluted in culture medium to reach the required concentrations (ranging from […]).
(§5) The in vitro cytotoxic effect of all agents was examined using the SRB assay for adherent cells and MTT assay for leukemia cells as described by Wietrzyk et al.. Each compound in given concentration was tested in triplicates in each experiment, which was repeated 3–5 times.

[2] = test system: SW707 (human colorectal adenocarcinoma); experiment: Antiproliferative assay in vitro (SRB); assay type: cell-based; conditions: for IC50: Homo sapiens, SW707, read-out: Cytotoxic activity IC50, Human SW707
Procedure: as §1, §2, §3, §4, §5

P388 (mouse leukemia) = experiment: Antiproliferative assay in vitro (MTT); assay type: cell-based; conditions: for IC50: Mus musculus, P388, read-out: Cytotoxic activity IC50, Murine P388
Procedure: as §1, §2, §3, §4, §5

[3] = test system: CCRF/CEM (human leukemia); experiment: Antiproliferative assay in vitro (MTT); assay type: cell-based; conditions: for IC50: Homo sapiens, CCRF-CEM, read-out: Cytotoxic activity IC50, Human CCRF/CEM
Procedure: as §1, §2, §3, §4, §5

[4] = test system: Balb3T3 (normal mouse fibroblasts); experiment: Antiproliferative assay in vitro (SRB); assay type: cell-based
Procedure: as §1, §2, §3, §4, §5

Compound | IC50 [1] | IC50 [2] | IC50 (P388 (mouse leukemia)) | IC50 [3] | melting point | Cytotoxic activity IC50, Human T47D [1] | Cytotoxic activity IC50, Human SW707 [2] | Cytotoxic activity IC50, Murine Balb3T3 [4] | Cytotoxic activity IC50, Human CCRF/CEM [3] | Cytotoxic activity IC50, Murine P388 (P388 (mouse leukemia)) | ID50 value against human leukemia (CCRF/CEM) cell line ([3]; CCRF/CEM, abstract wording) | selectivity index (SI) ([3]; ratio IC50 of normal fibroblast (Balb3T3) / IC50 on CCRF/CEM)
C#CCCOC(=O)OC[C@]12CCC(C(=C)C)C1C1CCC3[C@@]4(C)CC[C@H](O)C(C)(C)C4CC[C@@]3(C)[C@]1(C)CC2 (stereo partly shown) [Compound 3b, 28-O-(3-Butynyloxycarbonyl)betulin] | 6.9 ± 2.3 µg/mL (≈ 12.8 µM) | 22.6 ± 11.9 µg/mL (≈ 41.9 µM) | 3.6 ± 1.3 µg/mL (≈ 6.68 µM) | 5.2 ± 1.4 µg/mL (≈ 9.65 µM) | 86 to 88 °C |  |  |  |  |  |  | 
C=C(C)C1CC[C@]2(COC(=O)OCC#CC)CC[C@]3(C)C(CCC4[C@@]5(C)CC[C@H](O)C(C)(C)C5CC[C@]43C)C12 (stereo partly shown) [Compound 3c, 28-O-(2-Butynyloxycarbonyl)betulin] | 20.1 ± 5.3 µg/mL (≈ 37.3 µM) | 36.9 ± 6.3 µg/mL (≈ 68.5 µM) | 5.5 ± 2.8 µg/mL (≈ 10.2 µM) | 6.8 ± 2.9 µg/mL (≈ 12.6 µM) | 112 to 114 °C |  |  |  |  |  |  | 
C=C(C)C1CC[C@]2(COC(=O)OCC)CC[C@]3(C)C(CCC4[C@@]5(C)CC[C@H](O)C(C)(C)C5CC[C@]43C)C12 (stereo partly shown) [Compound 3d, 28-O-Ethoxycarbonylbetulin] | 6.6 ± 1.3 µg/mL (≈ 12.8 µM) | 20.8 ± 14.7 µg/mL (≈ 40.4 µM) | 3.8 ± 1.9 µg/mL (≈ 7.38 µM) | 4.1 ± 0.2 µg/mL (≈ 7.96 µM) | 94 to 96 °C |  |  |  |  |  |  | 
C#CCOC(=O)OC[C@]12CCC(C(=C)C)C1C1CCC3[C@@]4(C)CC[C@H](OC(=O)OCC#C)C(C)(C)C4CC[C@@]3(C)[C@]1(C)CC2 (stereo partly shown) [Compound 4a, 3,28-O,O'-Di(propargyloxycarbonyl)betulin] |  |  | 33.4 ± 1.7 µg/mL (≈ 55 µM) |  | 125 to 127 °C | Neg | Neg | Neg | Neg |  |  | 
C#CCCOC(=O)OC[C@]12CCC(C(=C)C)C1C1CCC3[C@@]4(C)CC[C@H](OC(=O)OCCC#C)C(C)(C)C4CC[C@@]3(C)[C@]1(C)CC2 (stereo partly shown) [Compound 4b, 3,28-O,O'-Di(3-butynyloxycarbonyl)betulin] |  |  |  |  | 140 to 142 °C | Neg | Neg | Neg | Neg | Neg |  | 
C=C(C)C1CC[C@]2(COC(=O)OCC#CC)CC[C@]3(C)C(CCC4[C@@]5(C)CC[C@H](OC(=O)OCC#CC)C(C)(C)C5CC[C@]43C)C12 (stereo partly shown) [Compound 4c, 3,28-O,O'-Di(2-butynyloxycarbonyl)betulin] |  |  | 50.4 ± 31.1 µg/mL (≈ 79.4 µM) |  | 70 to 73 °C | Neg | Neg | Neg | Neg |  |  | 
C=C(C)C1CC[C@]2(COC(=O)OCC)CC[C@]3(C)C(CCC4[C@@]5(C)CC[C@H](OC(=O)OCC)C(C)(C)C5CC[C@]43C)C12 (stereo partly shown) [Compound 4d, 3,28-O,O'-Di(ethoxycarbonyl)betulin] | 69.1 ± 12.4 µg/mL (≈ 118 µM) |  | 46.8 ± 21.6 µg/mL (≈ 79.7 µM) | 52.6 ± 8.3 µg/mL (≈ 89.6 µM) | 84 to 86 °C |  | Neg | Neg |  |  |  | 
C#CC(=O)OCC12CCC(C(=C)C)C1C1CCC3C4(C)CCC(O)C(C)(C)C4CCC3(C)C1(C)CC2 (stereo not shown) [Compound 5a, 28-O-Propynoylbetulin] | 9.1 ± 1.9 µg/mL (≈ 18.4 µM) | 14.9 ± 3.3 µg/mL (≈ 30.1 µM) | 0.4 ± 0.1 µg/mL (≈ 0.808 µM) | 0.02 ± 0.001 µg/mL (≈ 0.0404 µM) |  |  |  |  |  |  | 0.02 µg/mL (≈ 0.0404 µM) | 15
C=C(C)C1CC[C@]2(COC(=O)CC)CC[C@]3(C)C(CCC4[C@@]5(C)CC[C@H](O)C(C)(C)C5CC[C@]43C)C12 (stereo partly shown) [Compound 5c, 28-O-Propanoylbetulin] | 12.1 ± 4.4 µg/mL (≈ 24.3 µM) | 29.2 ± 24.4 µg/mL (≈ 58.5 µM) | 3.3 ± 0.8 µg/mL (≈ 6.62 µM) | 8.1 ± 0.9 µg/mL (≈ 16.2 µM) | 160 to 162 °C |  |  |  |  |  |  | 
C#CC(=O)OC[C@]12CCC(C(=C)C)C1C1CCC3[C@@]4(C)CC[C@H](OC(=O)C#C)C(C)(C)C4CC[C@@]3(C)[C@]1(C)CC2 (stereo partly shown) [Compound 6a, 3,28-O,O'-Dipropynoylbetulin] | 16.2 ± 4.3 µg/mL (≈ 29.6 µM) | 9.5 ± 1.9 µg/mL (≈ 17.4 µM) | 31.9 ± 1.4 µg/mL (≈ 58.3 µM) | 9.9 ± 7 µg/mL (≈ 18.1 µM) | 102 to 104 °C |  |  |  |  |  |  | 
C=C(C)C1CC[C@]2(COC(=O)CC)CC[C@]3(C)C(CCC4[C@@]5(C)CC[C@H](OC(=O)CC)C(C)(C)C5CC[C@]43C)C12 (stereo partly shown) [Compound 6c, 3,28-O,O'-Dipropanoylbetulin] | 26.6 ± 6.8 µg/mL (≈ 47.9 µM) | 42.3 ± 9.4 µg/mL (≈ 76.2 µM) | 68.1 ± 14.8 µg/mL (≈ 123 µM) |  | 142 to 144 °C |  |  | Neg | Neg |  |  | 
C=C(C)[C@@H]1CC[C@]2(COC(C)=O)CC[C@]3(C)[C@H](CC[C@@H]4[C@@]5(C)CC[C@H](O)C(C)(C)[C@@H]5CC[C@]43C)[C@@H]12 [Compound 7a, 28-O-acetylbetulin] | 4.9 ± 0.6 µg/mL (≈ 10.1 µM) | 5.1 ± 2.5 µg/mL (≈ 10.5 µM) | 12.5 ± 14.7 µg/mL (≈ 25.8 µM) | 3.4 ± 0.3 µg/mL (≈ 7.01 µM) |  |  |  |  |  |  |  | 
C=C(C)C1CC[C@]2(COC(C)=O)CC[C@]3(C)C(CCC4[C@@]5(C)CC[C@H](OC(C)=O)C(C)(C)C5CC[C@]43C)C12 (stereo partly shown) [Compound 7b, 3,28-O,O'-diacetylbetulin] |  |  | 40.2 ± 5 µg/mL (≈ 76.3 µM) | 34.1 ± 6.4 µg/mL (≈ 64.7 µM) |  | Neg | Neg | Neg |  |  |  | 
C#CCOC(=O)O[C@H]1CC[C@@]2(C)C(CC[C@]3(C)C2CCC2C4C(C(=C)C)CC[C@]4(COC(C)=O)CC[C@]23C)C1(C)C (stereo partly shown) [Compound 8a, 28-O-Acetyl-3-O'-propargyloxycarbonylbetulin] |  |  |  |  | 188 to 189 °C | Neg | Neg | Neg | Neg | Neg |  | 
C#CCCOC(=O)O[C@H]1CC[C@@]2(C)C(CC[C@]3(C)C2CCC2C4C(C(=C)C)CC[C@]4(COC(C)=O)CC[C@]23C)C1(C)C (stereo partly shown) [Compound 8b, 28-O-Acetyl-3-O'-(3-butynyloxycarbonyl)betulin] |  |  | 46.7 ± 16.2 µg/mL (≈ 80.4 µM) |  | 118 to 121 °C | Neg | Neg | Neg | Neg |  |  | 
C=C(C)C1CC[C@]2(COC(C)=O)CC[C@]3(C)C(CCC4[C@@]5(C)CC[C@H](OC(=O)OCC#CC)C(C)(C)C5CC[C@]43C)C12 (stereo partly shown) [Compound 8c, 28-O-Acetyl-3-O'-(2-butynyloxycarbonyl)betulin] |  |  |  |  | 126 to 129 °C | Neg | Neg | Neg | Neg | Neg |  | 
C=C(C)C1CC[C@]2(COC(C)=O)CC[C@]3(C)C(CCC4[C@@]5(C)CC[C@H](OC(=O)OCC)C(C)(C)C5CC[C@]43C)C12 (stereo partly shown) [Compound 8d, 28-O-Acetyl-3-O'-(ethoxycarbonyl)betulin] |  |  |  |  | 200 to 202 °C | Neg | Neg | Neg | Neg | Neg |  | 
